Assay [1] concerns H460 cells. Put plainly: Sensitivity of transfected H460 cells to taxotere, cisplatin or camptothecin (colony count, Example 2). Format: cell-based, human. The conditions noted are these: for apoptotic effect induced by the GAP (170-702) construction on addition of the product: added to culture medium of human tumour cells transfected with GAP(170-702), at concentrations without effect on cell viability; for apoptotic effect induced by the transfer of the Grb3-3 gene on addition of the product: added to culture medium of human tumour cells transfected with Grb3-3, at concentrations without effect on cell viability; for effect of the product alone on cell viability: concentrations used in the combination, human tumour cells. The text has this: H460 cells transfected as described in Example 1 are subjected during selection by geneticin to a treatment for several days at different concentrations of taxotere, of cisplatin or of camptothecin. The H460/Neo^R cells and which are resistant to the chemotherapeutic agents are quantified as described in Example 1. The sensitivity to taxotere (A), to cisplatin (B) or to camptothecin (C) of the H460 cells transfected with pSV2-Neo (●), pSV2-Neo+pSV2-GAP[170-702] (▴) or pSV2-Neo+pSV2-Grb3-3 (▾) is depicted relative to cells transfected identically but in the absence of treatment with the chemotherapeutic agents. The results of an experiment which is representative of quantification of the number of colony after the different treatments mentioned are summarized in FIG. 2.

The test system of assay [2] is H460 cells. Put plainly: Sensitivity of isolated H460 clones transfected with pcDNA3 or pcDNA3-p53WT to taxotere (Example 3). The format is cell-based, human. The source says: H460 cells are transfected with cDNA coding for the wild-type p53 protein (p53^WT) placed in the plasmid pcDNA3 under the control of the CMV promoter. Plasmid pcDNA3 also contains the Neo gene placed under the control of the SV40 promoter. Cells transfected with pcDNA3 or pcDNA3-p53^WT are selected and isolated as described in Example 1. In the cells transfected with pcDNA3-p53^WT and which are resistant to geneticin, the presence of p53 is verified by western blotting using specific antibodies. FIG. 3 summarizes the results of a representative experiment in which are depicted, on the one hand the number of colonies obtained after pcDNA3 or pcDNA3-p53^WT transfection (A), and on the other hand the sensitivity of the clones isolated to a treatment with taxotere (B).

Assay [3] relates to various tumour cell lines. Conditions: various tumour cell lines in culture; cited from earlier work.

These results are taken from patent US7884082B2, “Combined therapeutical treatment of hyperproliferative diseases” (Aventis Pharma SA, priority 1995, dated 2011).

In the case of `CC(=O)O[C@@]12CO[C@@H]1C[C@H](O)[C@@]1(C)C(=O)[C@H](O)C3=C(C)[C@@H](OC(=O)[C@H](O)[C@@H](NC(=O)OC(C)(C)C)c4ccccc4)C[C@@](O)([C@@H](OC(=O)c4ccccc4)[C@H]21)C3(C)C` [taxotere, 4-acetoxy-2α-benzoyloxy-5β,20-epoxy-1β,7β,10β-trihydroxy-9-oxo-11-taxen-13α-yl (2R,3S)-3′-t-butoxycarbonylamino-3′-phenyl-2′-hydroxypropionate], in the assay on H460 cells [1], the “apoptotic effect induced by the GAP (170-702) construction on addition of the product” value (“apoptotic effect induced by the GAP” for short) was “very greatly increased”, the “apoptotic effect induced by the transfer of the Grb3-3 gene on addition of the product” value (“apoptotic effect induced by the transfer” below) is “very greatly increased” and the “effect of the product alone on cell viability” value (“effect of the product alone” below) is “without effect on cell viability”. The “effect of taxotere on H460 clones expressing wild-type p53” value with H460 cells [2] (H460 clones resistant to the effect of p53, increasing doses of taxotere) is “cells die”. The “effect of taxotere on cells that do not express wild-type p53” value with H460 cells [2] (same concentrations as those killing p53-expressing clones) is “completely ineffective”.

On to `N.N.[Cl][Pt][Cl]` [cisplatin], for which, in the assay with H460 cells [1], the “apoptotic effect induced by the GAP” value is “very greatly increased”, the “apoptotic effect induced by the transfer” value is “very greatly increased” and the “effect of the product alone” value was “without effect on cell viability”.

As for `CC[C@@]1(O)C(=O)OCc2c1cc1n(c2=O)Cc2cc3ccccc3nc2-1` [camptothecin], in the assay on H460 cells [1], the “apoptotic effect induced by the GAP” value was “very greatly increased”, the “apoptotic effect induced by the transfer” value is “very greatly increased” and the “effect of the product alone” value was “without effect on cell viability”.

`CC(=O)O[C@H]1C(=O)[C@@]2(C)[C@H]([C@H](OC(=O)c3ccccc3)[C@]3(O)C[C@H](OC(=O)[C@H](O)[C@@H](NC(=O)c4ccccc4)c4ccccc4)C(C)=C1C3(C)C)[C@]1(OC(C)=O)CO[C@@H]1C[C@@H]2O` [Taxol, 4,10β-diacetoxy-2α-benzoyloxy-5β,20-epoxy-1β,7β-dihydroxy-9-oxo-11-taxen-13α-yl (2R,3S)-3′-benzoylamino-3′-phenyl-2′-hydroxypropionate]: in assay [3], the induction of apoptosis entry was “induces apoptosis”.
